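Test compounds were applied to cells in 96-well plates for 48 hours at 5 doses. GI50 is the concentration that inhibits growth by half.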 The source made the active and inactive calls. No stated cut-off is given here; in the data, active = GI50 up to about 1.1 µM and inactive = higher.
Key:
Assay in all cases: inhibition of tumour cell growth, NCI panel, 48 h
ACHN = tested on: ACHN
CAKI-1 = tested on: CAKI-1
CCRF-CEM = tested on: CCRF-CEM
EKVX = tested on: EKVX
HCT-15 = tested on: HCT-15
Hs-578T = tested on: Hs-578T
IGROV-1 = tested on: IGROV-1
KM12 = tested on: KM12
NCI-H23 = tested on: NCI-H23
NCI-H522 = tested on: NCI-H522
PC-3 = tested on: PC-3
RPMI-8226 = tested on: RPMI-8226
SF-268 = tested on: SF-268
SK-MEL-28 = tested on: SK-MEL-28
SNB-75 = tested on: SNB-75
SW-620 = tested on: SW-620
UACC-257 = tested on: UACC-257
UACC-62 = tested on: UACC-62
HCC 2998 = tested on: HCC 2998
HOP-92 = tested on: HOP-92

In the case of `Cc1ccc(N(Cc2ccccc2)Cc2ccccc2)cc1`, the GI50 (ACHN) is reported as > 100 µM (inactive), the GI50 (CAKI-1) is reported as 47.9 µM (inactive) and the GI50 (CCRF-CEM) is reported as 28 µM (inactive). The GI50 (EKVX) was 35.8 µM (inactive), the GI50 (HCT-15) was 40.9 µM and the GI50 (Hs-578T) was 40.5 µM (inactive). The GI50 (IGROV-1) was 23.7 µM (inactive), the GI50 (KM12) was 29.5 µM (inactive) and the GI50 (NCI-H23) was > 100 µM (inactive). For the same compound, the GI50 (NCI-H522) was 22 µM (inactive), the GI50 (PC-3) was 48.4 µM (inactive) and the GI50 (RPMI-8226) was 18.5 µM (inactive). For the same compound, the GI50 (SF-268) was 50.1 µM (inactive), the GI50 (SK-MEL-28) was 54.2 µM (inactive) and the GI50 (SNB-75) was 68.7 µM (inactive). The GI50 (SW-620) was 46.3 µM (inactive), the GI50 (UACC-257) was 42.4 µM (inactive) and the GI50 (UACC-62) was 82.4 µM (inactive).

In the case of `O=C1Nc2cccc(C(F)(F)F)c2/C1=N/Nc1ccccc1[N+](=O)[O-]`, the GI50 (ACHN) is reported as 16.1 µM (inactive), the GI50 (CAKI-1) is reported as > 100 µM (inactive) and the GI50 (CCRF-CEM) is reported as 40.6 µM (inactive). The GI50 (EKVX) was 11.6 µM (inactive), the GI50 (HCC 2998) was 28.7 µM (inactive) and the GI50 (HCT-15) was 34.4 µM. For the same compound, the GI50 (Hs-578T) was 27.3 µM (inactive), the GI50 (IGROV-1) was 0.404 µM (active) and the GI50 (KM12) was 5.97 µM (inactive). The GI50 (NCI-H23) was 22.1 µM (inactive), the GI50 (NCI-H522) was 22.4 µM (inactive) and the GI50 (PC-3) was 37.6 µM (inactive). For the same compound, the GI50 (RPMI-8226) was 11.4 µM (inactive), the GI50 (SF-268) was 40.9 µM (inactive) and the GI50 (SK-MEL-28) was 63.5 µM (inactive). For the same compound, the GI50 (SNB-75) was 25.6 µM (inactive), the GI50 (SW-620) was 33 µM (inactive) and the GI50 (UACC-257) was 10.3 µM (inactive). For the same compound, the GI50 (UACC-62) was 51.3 µM (inactive).

`O=C(O)CN1CCNCCN(CC(=O)O)CCN(CC(=O)O)CCNCC1` was tested, and the GI50 (ACHN) was > 100 µM (inactive), the GI50 (CAKI-1) was > 100 µM (inactive) and the GI50 (CCRF-CEM) was > 100 µM (inactive). For the same compound, the GI50 (EKVX) was > 100 µM (inactive), the GI50 (HCT-15) was 61.9 µM and the GI50 (HOP-92) was > 100 µM (inactive). For the same compound, the GI50 (Hs-578T) was > 100 µM (inactive), the GI50 (IGROV-1) was > 100 µM (inactive) and the GI50 (KM12) was > 100 µM (inactive). The GI50 (NCI-H522) was 18.2 µM (inactive), the GI50 (PC-3) was > 100 µM (inactive) and the GI50 (RPMI-8226) was > 100 µM (inactive). The GI50 (SK-MEL-28) was > 100 µM (inactive), the GI50 (SNB-75) was 63.4 µM (inactive) and the GI50 (SW-620) was 41.5 µM (inactive). For the same compound, the GI50 (UACC-257) was > 100 µM (inactive) and the GI50 (UACC-62) was 84.7 µM (inactive).

For `COC(=O)c1c(O)ccc2c1c1c(n2CCc2ccccc2)C(=O)c2ccccc2C1`, the GI50 (CAKI-1) was 17.2 µM (inactive), the GI50 (CCRF-CEM) was 21.4 µM (inactive) and the GI50 (HCT-15) was 19.7 µM. For the same compound, the GI50 (HOP-92) was 10.9 µM (inactive), the GI50 (Hs-578T) was 29.7 µM (inactive) and the GI50 (IGROV-1) was 19.6 µM (inactive). The GI50 (KM12) was 31.8 µM (inactive), the GI50 (NCI-H23) was 20.7 µM (inactive) and the GI50 (PC-3) was 16.8 µM (inactive). The GI50 (RPMI-8226) was 11.7 µM (inactive), the GI50 (SF-268) was 13.7 µM (inactive) and the GI50 (SK-MEL-28) was 19.5 µM (inactive). The GI50 (SNB-75) was 26.4 µM (inactive), the GI50 (SW-620) was 30.1 µM (inactive) and the GI50 (UACC-257) was 18.5 µM (inactive). For the same compound, the GI50 (UACC-62) was 14.4 µM (inactive).

`COC(=O)CN(CC(=O)NCCNC(=O)OC(C)(C)C)C1CCCCC1N(CC(=O)OC)CC(=O)OC` (centres undefined) was tested, and the GI50 (ACHN) was > 100 µM (inactive), the GI50 (CAKI-1) was > 100 µM (inactive) and the GI50 (CCRF-CEM) was > 100 µM (inactive). The GI50 (EKVX) was > 100 µM (inactive), the GI50 (HCC 2998) was > 100 µM (inactive) and the GI50 (HCT-15) was greater than 100 µM. The GI50 (Hs-578T) was > 100 µM (inactive), the GI50 (IGROV-1) was > 100 µM (inactive) and the GI50 (KM12) was > 100 µM (inactive). For the same compound, the GI50 (NCI-H23) was > 100 µM (inactive), the GI50 (NCI-H522) was > 100 µM (inactive) and the GI50 (PC-3) was > 100 µM (inactive). For the same compound, the GI50 (RPMI-8226) was > 100 µM (inactive), the GI50 (SF-268) was > 100 µM (inactive) and the GI50 (SK-MEL-28) was > 100 µM (inactive). For the same compound, the GI50 (SW-620) was > 100 µM (inactive), the GI50 (UACC-257) was > 100 µM (inactive) and the GI50 (UACC-62) was > 100 µM (inactive).

In the case of `Cc1cc(O)c(C(O)c2ccccn2)cc1O` (centres undefined), the GI50 (ACHN) is reported as 6.01 µM (inactive), the GI50 (CAKI-1) is reported as 11.7 µM (inactive) and the GI50 (CCRF-CEM) is reported as 3.21 µM (inactive). The GI50 (EKVX) was 18.2 µM (inactive), the GI50 (HCC 2998) was 21.3 µM (inactive) and the GI50 (HCT-15) was 18.2 µM. For the same compound, the GI50 (Hs-578T) was 45.8 µM (inactive), the GI50 (IGROV-1) was 35.8 µM (inactive) and the GI50 (KM12) was 24.5 µM (inactive). The GI50 (NCI-H23) was 18 µM (inactive), the GI50 (NCI-H522) was 3.78 µM (inactive) and the GI50 (PC-3) was 14.1 µM (inactive). The GI50 (RPMI-8226) was 20.4 µM (inactive), the GI50 (SF-268) was 75.7 µM (inactive) and the GI50 (SK-MEL-28) was 18.7 µM (inactive). For the same compound, the GI50 (SNB-75) was 14.7 µM (inactive), the GI50 (SW-620) was 21.1 µM (inactive) and the GI50 (UACC-257) was > 10 µM (inactive). For the same compound, the GI50 (UACC-62) was 14.5 µM (inactive).

In the case of `COC(=O)/C=C/c1cnc2c(c1)oc(=O)n2C`, the GI50 (ACHN) is reported as > 100 µM (inactive), the GI50 (CAKI-1) is reported as > 100 µM (inactive) and the GI50 (CCRF-CEM) is reported as > 100 µM (inactive). The GI50 (EKVX) was > 100 µM (inactive), the GI50 (HCC 2998) was > 100 µM (inactive) and the GI50 (HCT-15) was greater than 100 µM. The GI50 (HOP-92) was > 100 µM (inactive), the GI50 (Hs-578T) was > 100 µM (inactive) and the GI50 (IGROV-1) was > 100 µM (inactive). The GI50 (KM12) was > 100 µM (inactive), the GI50 (NCI-H23) was > 100 µM (inactive) and the GI50 (PC-3) was > 100 µM (inactive). For the same compound, the GI50 (RPMI-8226) was > 100 µM (inactive), the GI50 (SF-268) was > 100 µM (inactive) and the GI50 (SK-MEL-28) was > 100 µM (inactive). For the same compound, the GI50 (SNB-75) was > 100 µM (inactive), the GI50 (SW-620) was > 100 µM (inactive) and the GI50 (UACC-257) was > 100 µM (inactive). For the same compound, the GI50 (UACC-62) was > 100 µM (inactive).

With `O=C(CN1C(=O)c2ccccc2C1=O)OCC1CCCN2CCCCC12` (centres undefined) the GI50 (ACHN) was > 100 µM (inactive), the GI50 (CAKI-1) was > 100 µM (inactive) and the GI50 (CCRF-CEM) was > 100 µM (inactive). For the same compound, the GI50 (EKVX) was > 100 µM (inactive), the GI50 (HCC 2998) was > 100 µM (inactive) and the GI50 (HCT-15) was greater than 100 µM. For the same compound, the GI50 (HOP-92) was > 100 µM (inactive), the GI50 (Hs-578T) was > 100 µM (inactive) and the GI50 (KM12) was > 100 µM (inactive). The GI50 (NCI-H23) was > 100 µM (inactive), the GI50 (PC-3) was > 100 µM (inactive) and the GI50 (RPMI-8226) was > 100 µM (inactive). The GI50 (SF-268) was > 100 µM (inactive), the GI50 (SK-MEL-28) was > 100 µM (inactive) and the GI50 (SNB-75) was > 100 µM (inactive). The GI50 (SW-620) was > 100 µM (inactive), the GI50 (UACC-257) was > 100 µM (inactive) and the GI50 (UACC-62) was > 100 µM (inactive).

Reference: ChEMBL document CHEMBL1201862, “PubChem BioAssay data set” (2004)
